Patent publication US7638119B2, “Method of diminishing the symptoms of neurodegenerative disease” (priority 2004, dated 2009)
Where two headings read alike, the source gives them in different places.

Key:
Nrf2−/−, +/− or +/+ mice [1] = assay: Rotarod performance after 3NP; format: in vivo, mouse; conditions: Nrf2−/− mice versus 3NP-injected Nrf2+/+ and heterozygous mice, four hours after last dose, 5 rpm
Description: To assess sensorimotor deficits in 3NP-treated animals, mice were trained up to 5 times per day on the rotarod (Columbus Instruments) for three days prior to 3-NP administration (Fernagut, P. O., et al., Neuroscience 114:1005-1017, 2002). All mice were able to achieve 180 sec (5 rpm) on the first trial by day three. Rotarod function was measured prior to the first dose and following the last dose of 3-NP.
Four hours after the last dose, motor skills were assessed by rotarod performance. Up to three trials were given for each mouse and the longest time spent on the rotarod was used for analysis. All PBS-injected mice were able to maintain 5 rpm for 180 sec (the maximum time allowed).

[2] = tested on: Nrf2+/+ and −/− primary cortical neuronal cultures; assay: TUNEL staining of primary neuronal cultures treated with 3NP; format: cell-based, mouse; conditions: 2 mM 3NP, visual inspection
Description: (§1) For primary cortical neuronal cultures, Nrf2+/− mice were bred and cultures were prepared from individual E15/16 embryos as previously described (Lee, J. M., et al., supra, 2003). Treatments were applied between day 3 and 5 in vitro. Immunostaining for β-III-tubulin and GFAP confirmed no difference in the ratio of neurons to astrocytes between genotypes (data not shown). HPAP+ cultures were prepared similarly. HPAP activity and histochemistry in primary cultures was measured as previously described (Johnson, D. A., et al., supra, 2002).
(§2) LDH release into medium was measured using the CytoTox96 Non-Radioactive Cytotoxicity Assay kit (Promega) according to the manufacturers instructions. LDH activity was measured on both media and lysed cells. After normalizing to non-treated wells, the percentage of LDH in the media was calculated. Each measurement was made in at least triplicate on separate cultures from three individual pups. Terminal deoxynucleotidyltransferase-mediated dUTP nick end labeling (TUNEL; Roche Applied Science) staining was also performed according to the manufacturers instructions on cultures from at least two different pups per genotype.
(§3) In order to examine the differential sensitivity of Nrf2−/− neurons to complex II inhibition, Nrf2+/+ and −/− primary cortical neuronal cultures (3 DIV) were treated with 3NP for 48 and assessed for LDH release. […]

[3] = tested on: antioxidant response element (ARE); assay: hPAP reporter activation after 3NP in ARE-hPAP primary neuronal cultures; format: cell-based, mouse; conditions: ARE-hPAP+ primary cortical neuronal cultures, neurotoxic doses, 48 hours
Text: Nrf2−/− and ARE-hPAP transgenic reporter mice were bred separately. Nrf2−/− mice were created by targeted disruption of the Nrf2 gene (Chan, K., et al., Proc. Natl. Acad. Sci. USA 93:13943-13948, 1996). ARE-hPAP reporter mice were created by insertion of a 51 basepair segment of rat NAD(P)H Quinone Oxidoreductase-1 promoter containing the core ARE into a minimal promoter upstream of the heat stable human Placental Alkaline Phosphatase (hPAP) (Johnson, D. A., et al., J. Neurochem. 81:1233-1241, 2002).
as §1
This activation was localized to the surviving astrocytes (FIG. 2B) as visualized by vector red staining and GFAP co-labeling.

Nrf2−/−, +/− or +/+ mice [4] = assay: Systemic 3NP administration: phenotypic scoring, death and weight loss; format: in vivo, mouse
Description: (§4) Nrf2−/−, +/−, or +/+ mice received i.p. injections of 50 mg/kg 3NP or vehicle every 12 hours for a total of 7 injections. 25 mg/ml 3-NP in PBS was prepared fresh and adjusted to pH 7.4 with 10M NaOH. Individual doses were diluted so that injection volume remained constant at 200 μl. Six to eight hours after the last dose mice were sacrificed as below. One Nrf2 KO mouse died prior to the seventh dose and three others had severe symptoms that were classified as stage III according to Gabrielson, et al. (Gabrielson, K. L., et al., Am. J. Pathol. 159:1507-1520, 2001).
We posited that this increased sensitivity would also extend to an in vivo model. 18 week-old mice were dosed every 12 hours with 50 mg/kg 3NP. After seven doses, a clear differential sensitivity had emerged based on the subjective classification described by Gabrielson, et al. (Gabrielson, K. L., et al., supra, 2001). […] No Nrf2+/+ or Nrf2+/− mice rated above stage 1.
Table 1: Phenotypic scoring of mice after 3NP administration. Nrf2+/+, Nrf2+/− and Nrf2−/− mice were scored Stage 0, I, II or III based on the development of clinical symptoms.

[5] = tested on: Nrf2+/+ and −/− primary cortical neuronal cultures; assay: LDH release cytotoxicity in primary neuronal cultures treated with 3NP; format: cell-based, mouse; conditions: Nrf2−/− versus wild-type cultures, all doses, treated for 48
Description: as §1, §2, §3

Nrf2−/−, +/− or +/+ mice [6] = assay: Striatal lesions after 3NP (Fluorojade-B, cresyl violet); format: in vivo, mouse
Description: as §4
(§5) Mice were euthanized with CO2 and perfused with 4% paraformaldehyde. Tissues were post-fixed overnight at 4° C. and cryoprotected in 30% sucrose/PBS. Using a cryostat (Leica), adjacent coronal 20 μm and 50 μm sections were taken for staining with Fluorojade-B and cresyl violet respectively through the entire striatum. […] Lesion size was quantified using the Cavieleri Estimator (Stereoinvestigator; Microbrightfield) on sections 200 μm apart. HPAP histochemistry was measured as previously described (Johnson, D. A., et al., supra, 2002).
After mice were sacrificed, brains were stained with cresyl violet or Fluorojade-B (FIG. 3C). Lesions in Nrf2−/− mice were observable using both staining methods; however, they were more apparent in the fluorojade B-stained sections; these sections were used for lesion volume quantification (FIG. 3D).

[7] = tested on: antioxidant response element (ARE); assay: hPAP histochemistry after intrastriatal malonate in ARE-hPAP reporter mice; format: in vivo, mouse; conditions: 48 hours after intrastriatal malonate
Description: (§6) Mice were anesthetized with isoflurane. […] One minute after insertion of the Hamilton syringe, the solution was administered over 2 minutes and the needle was withdrawn 2 mm per minute. ARE-hPAP+ mice were injected similarly with 0.25M (1 μl), due to differences in background strain sensitivity.
as §5
Malonate was injected intrastriatally into ARE-hPAP reporter mice. After 48 hours the mice were euthanized and hPAP histochemistry was performed. […] ARE-activated astrocytes, as visualized by GFAP immunohistochemistry, occur in a similar pattern (FIG. 5C).

[8] = tested on: Nrf2−/−, +/− and +/+ mice; conditions: for Average lesion size: 0.5M malonate 1 μl intrastriatal, cresyl violet
Description: as §6, §5
Ten days post-injection mice were sacrified and lesion size was measured by cresyl violet staining (FIG. 4A).

[9] = Nrf2−/− mice, 50 mg/kg i.p. every 12 hours, 7 injections

For `O=C(O)CC[N+](=O)[O-]` [3NP, 3-nitropropionic acid], the Rotarod function (Nrf2−/−, +/− or +/+ mice [1]) was “significantly reduced function”, the TUNEL-positive neurons ([2]; Nrf2+/+ neurons) was “significantly lower percentage” and the TUNEL-positive neurons ([2]; Nrf2−/− neurons) was “Nearly all”. For the same compound, the hPAP expression [3] was “significantly increased”, the “Mice scored Stage 0” value (Nrf2−/−, +/− or +/+ mice [4]; Nrf2+/+ mice, 50 mg/kg i.p. every 12 hours, 7 injections) was 5 and the “Mice scored Stage 0” value (Nrf2−/−, +/− or +/+ mice [4]; Nrf2+/− mice, 50 mg/kg i.p. every 12 hours, 7 injections) was 4. For the same compound, the “Mice scored Stage 0” value (Nrf2−/−, +/− or +/+ mice [4]; [9]) was 1, the “Mice scored Stage I” value (Nrf2−/−, +/− or +/+ mice [4]; [9]) was 3 and the “Mice scored Stage II” value (Nrf2−/−, +/− or +/+ mice [4]; [9]) was 1. The “Weight loss, percent of starting weight” value (Nrf2−/−, +/− or +/+ mice [4]; Nrf2−/− mice, after seven doses of 50 mg/kg) was 12±1.9%, the Death (Nrf2−/−, +/− or +/+ mice [4]; Nrf2−/− mice, prior to the seventh dose of 50 mg/kg) was “one mouse died” and the LDH release [5] was “greater in the Nrf2−/− cultures than in wild-type cultures”. For the same compound, the “Mice with measurable lesions” value (Nrf2−/−, +/− or +/+ mice [6]; Nrf2+/+ mice) was “No lesions”, the “Mice with measurable lesions” value (Nrf2−/−, +/− or +/+ mice [6]; Nrf2+/− mice) was “only one” and the “Mice with measurable lesions” value (Nrf2−/−, +/− or +/+ mice [6]; Nrf2−/− mice) was “Five of the eight”.
In the case of `O=C(O)CC(=O)O` [malonate], the hPAP activity [7] is reported as “present near the edges of the lesion”, the Average lesion size ([8]; Nrf2+/+ mice, ten days post-injection) is reported as 0.03±0.07 mm^3 and the Average lesion size ([8]; Nrf2+/− mice, ten days post-injection) is reported as 0.16±0.07 mm^3. The “Increase of average lesion size” value ([8]; Nrf2−/− versus Nrf2+/+ mice) was “over 21 fold”, the “Increase of average lesion size” value ([8]; Nrf2−/− versus Nrf2+/− mice) was 4 fold and the Overt behavioral phenotype ([8]; all genotypes, ten days post-injection) was “None of the mice exhibited an overt behavioral phenotype”.
